{
  "source": "paper PMC12856317",
  "about": "“A reversible feedback mechanism regulating mitochondrial heme synthesis” (The Journal of Biological Chemistry, 2025)",
  "type_in_all_cases": "biochemical",
  "key": {"[1]": {"molecular_target": "T1, WT holoALAS2 (residues 54–587) (Homo sapiens, UniProt P22557)", "T1 construct": "His6-SUMO (N, cleaved yes); made in house; host or cells: Escherichia coli BL21-Codon Plus (DE3)-RIL", "T1 sequence (P22557 54-587)": "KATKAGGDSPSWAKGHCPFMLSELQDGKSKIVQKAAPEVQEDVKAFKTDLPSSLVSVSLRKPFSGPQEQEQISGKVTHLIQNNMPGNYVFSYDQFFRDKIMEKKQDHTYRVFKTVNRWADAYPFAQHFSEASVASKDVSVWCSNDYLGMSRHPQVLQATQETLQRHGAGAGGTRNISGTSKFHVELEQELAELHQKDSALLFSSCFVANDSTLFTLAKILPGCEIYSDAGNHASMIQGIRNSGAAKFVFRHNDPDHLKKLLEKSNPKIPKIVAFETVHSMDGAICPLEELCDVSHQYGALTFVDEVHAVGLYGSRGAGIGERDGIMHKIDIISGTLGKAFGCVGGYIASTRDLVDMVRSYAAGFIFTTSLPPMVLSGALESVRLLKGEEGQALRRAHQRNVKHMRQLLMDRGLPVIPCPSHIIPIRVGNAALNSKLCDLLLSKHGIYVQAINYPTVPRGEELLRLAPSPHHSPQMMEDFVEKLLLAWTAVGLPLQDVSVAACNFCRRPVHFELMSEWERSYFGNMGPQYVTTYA", "assay": "Succinyl-CoA:hemin competition analysis", "conditions": "WT holoenzyme", "experimental": "(§1) A discontinuous colorimetric activity assay adapted from Shoolingin-Jordan et al. and Bailey et al. was used to measure the enzyme activity ([48], [74]). The reaction was initiated by adding 100 nM purified enzyme to 50 mM potassium phosphate, pH 7.0, 10 mM MgCl2, 1 mM DTT, 100 mM glycine, and 300 μM succinyl-CoA (175 μl total). The reaction was incubated at 37 °C for 15 min and terminated with 100 μl of cold 10% trichloroacetic acid. The precipitated protein was removed by centrifugation for 5 min at 13,000g, and 240 μl of the supernatant was mixed with 240 μl of 1 M sodium acetate, pH 4.6. To derivatize ALA, 20 μl of acetylacetone was added to the mixture and boiled at 100 °C for 10 min. After the sample was cooled for 20 min, 100 μl aliquots were transferred into a clear 96-well plate in triplicate. An equal volume of Ehrlich’s reagent (p-Dimethylaminobenzaldehyde, DMAB) was added to each well, and the absorbance was monitored at 553 nm using a microplate reader (Thermo Fisher Scientific). The peak absorbance value was converted to molar ALA concentration using ε553 = 60,400 M^−1 cm^−1.\nFor inhibitor competition experiments, the apoenzymes were preincubated with hemin or PLP (0–100 μM) for 15 min at 25 °C in the dark before initiating the reaction. Next, either PLP or hemin (0–100 μM) was titrated into the reactions to measure enzyme activation after hemin inhibition or enzyme inhibition of the PLP-treated apoenzyme, respectively. For succinyl-CoA:hemin competition analyses, the WT holoenzyme was mixed with hemin (0, 25, 50, and 100 μM), followed by the addition of increasing succinyl-CoA concentrations (0, 25, 50, 100, 250, and 500 μM). All experiments were performed with a minimum of three biological replicates, each with three technical replicates. Data were fit using nonlinear regression to generate an agonist dose-response curve (EC50) or an inhibitor dose-response curve (IC50). Lineweaver-Burk analysis was performed using the resulting kinetic parameters (Vmax and KM) in GraphPad Prism 10."}, "[2]": {"molecular_target": "T2, holoALAS2 ΔC (residues 54–547) (Homo sapiens, UniProt P22557)", "T2 construct": "a truncation without the C-terminal CXXC motif (ΔC, residues 54–547); His6-SUMO (N, cleaved yes); made in house; host or cells: Escherichia coli BL21-Codon Plus (DE3)-RIL", "T2 sequence (P22557 54-547)": "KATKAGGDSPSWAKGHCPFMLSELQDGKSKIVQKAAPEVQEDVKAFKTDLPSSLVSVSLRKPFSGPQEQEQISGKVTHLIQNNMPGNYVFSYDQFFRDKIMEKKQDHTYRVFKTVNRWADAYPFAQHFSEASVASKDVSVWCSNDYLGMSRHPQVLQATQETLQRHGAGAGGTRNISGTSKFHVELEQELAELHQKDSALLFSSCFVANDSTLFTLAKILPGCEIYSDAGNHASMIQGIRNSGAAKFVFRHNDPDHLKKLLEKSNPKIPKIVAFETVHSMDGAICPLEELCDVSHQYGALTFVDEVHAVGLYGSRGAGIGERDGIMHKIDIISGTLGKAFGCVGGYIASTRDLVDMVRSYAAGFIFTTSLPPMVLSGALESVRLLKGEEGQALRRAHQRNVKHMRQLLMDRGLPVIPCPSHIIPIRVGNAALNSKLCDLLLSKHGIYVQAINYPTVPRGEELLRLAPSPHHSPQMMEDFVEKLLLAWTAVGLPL", "assay": "Colorimetric ALA release activity assay, hemin inhibition of holoenzyme", "experimental": "as §1\n(§2) Inhibition of enzyme activity was determined by titrating hemin (0.1 μM–60 μM) into the substrate mixture before initiating the reaction upon enzyme addition. Hemin was dissolved in 100% dimethyl sulfoxide (DMSO) (ε403 nm = 170,000 M^−1 cm^−1) and serially diluted in 100% DMSO to prepare stock solutions for each concentration. The final DMSO concentration in the reaction mixture was 2%. All experiments were performed with a minimum of three biological replicates, each with three technical replicates. Data were fitted using nonlinear regression to generate an inhibitor dose-response curve (IC50) or an agonist dose-response curve (EC50), and statistical significance was determined using a one-way ANOVA with GraphPad Prism 10."}, "[3]": {"molecular_target": "T3, holoALAS2 ΔN (residues 75–587) (Homo sapiens, UniProt P22557)", "T3 construct": "a truncation without HRM3 (ΔN, residues 75–587); His6-SUMO (N, cleaved yes); made in house; host or cells: Escherichia coli BL21-Codon Plus (DE3)-RIL", "T3 sequence (P22557 75-587)": "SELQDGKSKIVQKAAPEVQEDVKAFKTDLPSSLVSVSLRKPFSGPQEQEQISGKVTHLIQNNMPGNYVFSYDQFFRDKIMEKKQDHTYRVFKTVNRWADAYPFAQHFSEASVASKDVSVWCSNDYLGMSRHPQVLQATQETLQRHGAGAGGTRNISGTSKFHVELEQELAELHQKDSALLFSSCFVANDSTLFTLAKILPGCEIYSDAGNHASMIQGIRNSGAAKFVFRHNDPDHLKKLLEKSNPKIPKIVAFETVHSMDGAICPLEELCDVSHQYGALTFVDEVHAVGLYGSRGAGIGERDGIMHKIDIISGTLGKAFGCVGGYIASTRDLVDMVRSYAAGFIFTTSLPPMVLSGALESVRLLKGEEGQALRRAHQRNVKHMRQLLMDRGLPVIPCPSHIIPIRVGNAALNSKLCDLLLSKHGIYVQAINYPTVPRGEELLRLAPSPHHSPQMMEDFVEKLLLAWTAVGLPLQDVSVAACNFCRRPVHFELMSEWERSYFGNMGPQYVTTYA", "assay": "Colorimetric ALA release activity assay, hemin inhibition of holoenzyme", "experimental": "as §1, §2"}},
  "data": [
    {"substance": "ferric chloride heme [hemin]", "values": [
      {"measurement": "fold lower Vmax", "setting": "[1]; heme versus no heme, varied succinyl-CoA", "value": 8, "unit": "fold"},
      {"measurement": "mode of inhibition", "setting": "[1]; varied succinyl-CoA and heme", "value": "uncompetitively"},
      {"measurement": "IC50", "setting": "[2]; 0.1 μM–60 μM hemin titrated into holoenzyme", "value": "31.3 ± 0.8", "unit": "µM"},
      {"measurement": "residual enzyme activity, of basal activity", "setting": "[2]; 100-fold excess heme", "value": "~25", "unit": "%"},
      {"measurement": "IC50 fold higher than WT", "setting": "[3]; ΔN versus WT", "value": "~2", "unit": "fold"},
      {"measurement": "IC50", "setting": "[3]; ΔN, 0.1 μM–60 μM hemin titrated into holoenzyme", "value": "35.8 ± 0.4", "unit": "µM"}
    ]}
  ]
}
